The term IC50 denotes the concentration at which inhibition is half-maximal.

Assay [1] concerns the target T1, human orexin-2 receptor (Homo sapiens, UniProt O43614).
T1 construct: expressed in transfected cells; host or cells: CHO (Chinese hamster ovary) cells, kept under G418 selection
T1 sequence (O43614 1-444): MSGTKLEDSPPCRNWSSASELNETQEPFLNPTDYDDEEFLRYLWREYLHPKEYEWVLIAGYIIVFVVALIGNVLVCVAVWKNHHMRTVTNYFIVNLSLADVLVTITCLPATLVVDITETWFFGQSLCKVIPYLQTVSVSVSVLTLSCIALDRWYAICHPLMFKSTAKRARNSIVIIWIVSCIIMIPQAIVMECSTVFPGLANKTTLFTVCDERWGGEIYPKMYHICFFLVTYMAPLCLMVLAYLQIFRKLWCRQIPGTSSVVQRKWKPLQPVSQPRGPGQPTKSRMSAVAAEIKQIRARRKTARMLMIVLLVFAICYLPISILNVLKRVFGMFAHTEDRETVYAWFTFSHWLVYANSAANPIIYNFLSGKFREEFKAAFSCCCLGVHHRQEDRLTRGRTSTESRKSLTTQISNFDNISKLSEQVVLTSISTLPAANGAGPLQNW
The experiment in a line: Intracellular calcium measurement (FLIPR Tetra), orexin receptor antagonistic activity, OX2. The class given is cell-based. The conditions noted are these: CHO cells expressing human orexin-2 receptor, 3 nM orexin-A, conditions B. An outline of the steps:
(§1)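 Recombinant CHO cells expressing human OX1 or OX2, loaded with fluo-4 AM plus probenecid, were preincubated with antagonist 10 min, then stimulated with 3 nM human orexin-A. Peak fluorescence was compared with vehicle; IC50 derived, sometimes normalized to an on-plate reference compound; two pipetting/cell-splitting conditions were used.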
In general terms: Calcium assays in cells follow changes in intracellular calcium, usually with a dye or a luminescent sensor.

Assay [2] has as its target T2, human orexin-1 receptor (Homo sapiens, UniProt O43613).
T2 construct: expressed in transfected cells; host or cells: CHO (Chinese hamster ovary) cells, kept under G418 selection
T2 sequence (O43613 1-425): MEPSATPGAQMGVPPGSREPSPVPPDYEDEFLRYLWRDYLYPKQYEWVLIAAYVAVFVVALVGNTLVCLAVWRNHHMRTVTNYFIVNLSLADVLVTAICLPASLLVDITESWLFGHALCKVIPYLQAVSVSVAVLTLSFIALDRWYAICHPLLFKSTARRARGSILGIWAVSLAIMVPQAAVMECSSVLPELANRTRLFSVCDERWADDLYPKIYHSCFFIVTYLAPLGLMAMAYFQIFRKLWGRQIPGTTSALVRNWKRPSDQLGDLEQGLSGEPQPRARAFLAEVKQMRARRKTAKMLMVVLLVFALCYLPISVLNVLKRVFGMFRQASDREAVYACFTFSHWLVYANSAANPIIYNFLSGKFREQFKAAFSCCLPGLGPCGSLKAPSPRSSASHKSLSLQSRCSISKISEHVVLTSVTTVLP
The experiment in a line: Intracellular calcium measurement (FLIPR Tetra), orexin receptor antagonistic activity, OX1. The class given is cell-based. As to conditions: CHO cells expressing human orexin-1 receptor, 3 nM orexin-A, conditions B. Put shortly:
as §1

[3] abbreviates: normalized (*) using IC50 of on-plate reference compound.

As for `COc1ccc(-c2sc(C)nc2C(=O)N(CCc2c[nH]c3ccc(F)cc23)CC(F)F)cn1` [Example 307, 5-(6-Methoxy-pyridin-3-yl)-2-methyl-thiazole-4-carboxylic acid (2,2-difluoro-ethyl)-[2-(5-fluoro-1H-indol-3-yl)-ethyl]-amide], the IC50 was found to be 20 nM in assay [1] (setting [3]) and 345 nM in assay [2] (setting [3]).
The matching figures for `COc1ccc(-c2sc(C)nc2C(=O)N(CCO)CCc2c[nH]c3ccc(F)cc23)cn1` [Example 308, 5-(6-Methoxy-pyridin-3-yl)-2-methyl-thiazole-4-carboxylic acid [2-(5-fluoro-1H-indol-3-yl)-ethyl]-(2-hydroxy-ethyl)-amide]: 25 nM and 357 nM.
As for `CCCN(CCc1c[nH]c2ccc(F)cc12)C(=O)c1ncccc1-c1ccc(OC)nc1` [Example 311], the IC50 was determined as 16 nM in assay [1] (setting [3]) and 147 nM in assay [2] (setting [3]).
In the case of `COc1ccc(-c2cccnc2C(=O)N(CCc2c[nH]c3ccc(F)cc23)CC(F)(F)F)cn1` [Example 312], the half-maximal inhibitory concentration (IC50) in assay [1] (setting [3]) stood at 76 nM; in assay [2] (setting [3]) it was 346 nM.
The matching figures for `COc1ccc(-c2cccnc2C(=O)N(CCc2c[nH]c3ccc(F)cc23)CC(N)=O)cn1` [Example 313, 6′-Methoxy-[3,3′]bipyridinyl-2-carboxylic acid carbamoylmethyl-[2-(5-fluoro-1H-indol-3-yl)-ethyl]-amide]: 526 nM and 5260 nM.
On the same counts, the results for `COC(=O)CN(CCc1c[nH]c2ccc(F)cc12)C(=O)c1ncccc1-c1ccc(OC)nc1` [Example 315] are 116 nM and 847 nM.
In the case of `COc1ccc(-c2cccnc2C(=O)N(CCc2c[nH]c3ccc(F)cc23)CC(F)F)cn1` [Example 317, 6′-Methoxy-[3,3′]bipyridinyl-2-carboxylic acid (2,2-difluoro-ethyl)-[2-(5-fluoro-1H-indol-3-yl)-ethyl]-amide], the figures for the IC50 in assay [1] (setting [3]) and in assay [2] (setting [3]) were 162 nM and 760 nM, respectively.
The matching figures for `COc1ccc(-c2cccnc2C(=O)N(CCO)CCc2c[nH]c3ccc(F)cc23)cn1` [Example 318, 6′-Methoxy-[3,3′]bipyridinyl-2-carboxylic acid [2-(5-fluoro-1H-indol-3-yl)-ethyl]-(2-hydroxy-ethyl)-amide]: 848 nM and above 5420 nM.
The matching figures for `COc1ccc2[nH]cc(CCN(CC3CC3)C(=O)c3nccnc3-c3ccccc3)c2c1` [Example 322, 3-Phenyl-pyrazine-2-carboxylic acid cyclopropylmethyl-[2-(5-methoxy-1H-indol-3-yl)-ethyl]-amide]: 24 nM and 190 nM.
On the same counts, the results for `Cc1ccc2[nH]cc(CCN(CC3CC3)C(=O)c3nccnc3-c3ccccc3)c2c1` [Example 324, 3-Phenyl-pyrazine-2-carboxylic acid cyclopropylmethyl-[2-(5-methyl-1H-indol-3-yl)-ethyl]-amide] are 8 nM and 77 nM.
As for `Cc1cccc2c(CCN(CC3CC3)C(=O)c3nccnc3-c3ccccc3)c[nH]c12` [Example 326, 3-Phenyl-pyrazine-2-carboxylic acid cyclopropylmethyl-[2-(7-methyl-1H-indol-3-yl)-ethyl]-amide], the half-inhibitory concentration (IC50) in assay [1] (setting [3]) came to 8 nM; in assay [2] (setting [3]) it was 76 nM.
The matching figures for `Cc1ccc(-c2nccnc2C(=O)N(CCc2cn(C)c3ccccc23)CC2CC2)cc1C` [Example 330, 3-(3,4-Dimethyl-phenyl)-pyrazine-2-carboxylic acid cyclopropylmethyl-[2-(1-methyl-1H-indol-3-yl)-ethyl]-amide]: 8 nM and 18 nM.
The matching figures for `Cc1ccc(-c2nccnc2C(=O)N(CCc2c[nH]c3cc(Cl)ccc23)CC2CC2)cc1C` [Example 331, 3-(3,4-Dimethyl-phenyl)-pyrazine-2-carboxylic acid [2-(6-chloro-1H-indol-3-yl)-ethyl]-cyclopropylmethyl-amide]: 22 nM and 62 nM.
On the same counts, the results for `Cc1ccc(-c2nccnc2C(=O)N(CCc2c[nH]c3c(C)cccc23)CC2CC2)cc1C` [Example 337, 3-(3,4-Dimethyl-phenyl)-pyrazine-2-carboxylic acid cyclopropylmethyl-[2-(7-methyl-1H-indol-3-yl)-ethyl]-amide] are 5 nM and 16 nM.
`Cc1ccc(-c2nccnc2C(=O)N(CCc2c[nH]c3c(F)cccc23)CC2CC2)cc1C` [Example 340, 3-(3,4-Dimethyl-phenyl)-pyrazine-2-carboxylic acid cyclopropylmethyl-[2-(7-fluoro-1H-indol-3-yl)-ethyl]-amide]: the IC50 was 53 nM in assay [1] (setting [3]) and 99 nM in assay [2] (setting [3]).
The matching figures for `COc1ccc(-c2sc(C)nc2C(=O)N(CCc2cn(C)c3ccccc23)CC2CC2)cn1` [Example 341, 5-(6-Methoxy-pyridin-3-yl)-2-methyl-thiazole-4-carboxylic acid cyclopropylmethyl-[2-(1-methyl-1H-indol-3-yl)-ethyl]-amide]: 36 nM and 18 nM.
On the same counts, the results for `COc1ccc(-c2sc(C)nc2C(=O)N(CCc2c[nH]c3cc(F)ccc23)CC2CC2)cn1` [Example 350, 5-(6-Methoxy-pyridin-3-yl)-2-methyl-thiazole-4-carboxylic acid cyclopropylmethyl-[2-(6-fluoro-1H-indol-3-yl)-ethyl]-amide] are 17 nM and 4 nM.
The matching figures for `COc1ccc(-c2cccnc2C(=O)N(CCc2cn(C)c3ccccc23)CC2CC2)cn1` [Example 352, 6′-Methoxy-[3,3′]bipyridinyl-2-carboxylic acid cyclopropylmethyl-[2-(1-methyl-1H-indol-3-yl)-ethyl]-amide]: 37 nM and 20 nM.
With `COc1ccc(-c2cccnc2C(=O)N(CCc2c[nH]c3cc(Cl)ccc23)CC2CC2)cn1` [Example 353], the IC50 in assay [1] (setting [3]) stood at 23 nM; in assay [2] (setting [3]), 87 nM.
The matching figures for `COc1ccc(-c2cccnc2C(=O)N(CCc2c[nH]c3ccc(C)cc23)CC2CC2)cn1` [Example 357]: 30 nM and 14 nM.
The matching figures for `COc1ccc(-c2cccnc2C(=O)N(CCc2c[nH]c3cc(F)ccc23)CC2CC2)cn1` [Example 361]: 60 nM and 35 nM.
The matching figures for `COc1ccc2nc(CCN(CC3CC3)C(=O)c3ncccc3-c3ccc(OC)nc3)[nH]c2c1` [Example 371, 6′-Methoxy-[3,3′]bipyridinyl-2-carboxylic acid cyclopropylmethyl-[2-(6-methoxy-1H-benzoimidazol-2-yl)-ethyl]-amide]: 89 nM and 1860 nM.
For the molecule `Cc1ccc(-c2nccnc2C(=O)N(CCc2nc3cc(C)c(C)cc3[nH]2)CC2CC2)cc1C` [Example 374, 3-(3,4-Dimethyl-phenyl)-pyrazine-2-carboxylic acid cyclopropylmethyl-[2-(5,6-dimethyl-1H-benzoimidazol-2-yl)-ethyl]-amide], the IC50 in assay [1] (setting [3]) came out at 35 nM; in assay [2] (setting [3]) it was 102 nM.
On the same counts, the results for `Cc1ccc(-c2sc(N(C)C)nc2C(=O)N(CCc2nc3cc(C)c(C)cc3[nH]2)CC2CC2)cc1C` [Example 377, 2-Dimethylamino-5-(3,4-dimethyl-phenyl)-thiazole-4-carboxylic acid cyclopropylmethyl-[2-(5,6-dimethyl-1H-benzoimidazol-2-yl)-ethyl]-amide] are 261 nM and 114 nM.
The matching figures for `COc1ccc(-c2sc(C)nc2C(=O)N(CCc2c[nH]c3cc4c(cc23)OCO4)CC2CC2)cn1` [Example 382, 5-(6-Methoxy-pyridin-3-yl)-2-methyl-thiazole-4-carboxylic acid cyclopropylmethyl-[2-(5H-[1,3]dioxolo[4,5-f]indol-7-yl)-ethyl]-amide]: 12 nM and 427 nM.
Consider `COc1ccc(CCN(CC2CC2)C(=O)c2ccncc2-c2cccc(C)c2)cc1OC` [Example 386, N-Cyclopropylmethyl-N-[2-(3,4-dimethoxy-phenyl)-ethyl]-3-m-tolyl-isonicotinamide], for which the figures for the IC50 in assay [1] and in assay [2] were 5 nM and 234 nM, respectively.

For the origin of these results see patent US20110212968A1, “PHENETHYLAMIDE DERIVATIVES AND THEIR HETEROCYCLIC ANALOGUES” (priority 2008, published 2011).
